Where two headings read alike, the source gives them in different places.
System: P. aeruginosa PA14
Test: IC50 of compounds in conjunction with colistin relative to P. aeruginosa (growth, absorbance at 600 nm)
Type: cell-based
Conditions: Pseudomonas aeruginosa
Description: Various compounds of formula I in Example 1 above were tested to determine IC50 of the compounds in conjunction with colistin relative to P. aeruginosa. IC50 testing of the compounds was conducted to the following protocol. Overnight cultures of P. aeruginosa PA14 were back diluted into fresh LB to an OD600 of 2.5×10^−3. Using polypropylene 96 well plates (Corning 3879), the potential antibiotic adjuvant was assayed with a 3-fold dilution starting with a […]. The concentration of colistin was held constant at sublethal concentration ([…]), using a freshly prepared colistin stock and minimizing transfers of colistin-containing solutions. After 17 h of aerobic growth at 37° C., 300 rpm, the absorbance at 600 nm was recorded.

[1] = P. aeruginosa PA14 in LB, colistin held constant at sublethal concentration (0.25 to 0.375 pg/mL), 3-fold dilution starting with a 250 concentration, 17 h aerobic growth at 37° C., absorbance at 600 nm, read-out: IC50

| SMILES | IC50 [1] [µM] | IC50 (PA14, 17 h) [µM] |
| --- | --- | --- |
| CC(C)(C)c1cccc(OCCCCCC(=O)Nc2ccnc(C(F)(F)F)c2)c1 [Compound S28, 6-(3-(tert-Butyl)phenoxy)-N-(2-(trifluoromethyl)pyridin-4-yl)hexanamide] | 0.8 | – |
| O=C(CCCCCN1CCN(c2ccccc2)CC1)Nc1ccnc(C(F)(F)F)c1 [Compound S40, 6-(4-Phenylpiperazin-1-yl)-N-(2-(trifluoromethyl)pyridin-4-yl)hexanamide] | 50 | – |
| O=C(CCCCCN1CCN(c2ccncc2)CC1)Nc1ccnc(C(F)(F)F)c1 [Compound S43, 6-(4-(Pyridin-4-yl)piperazin-1-yl)-N-(2-(trifluoromethyl)pyridin-4-yl)hexanamide] | 75 | – |
| C#Cc1ccc(OCCCCCC(=O)Nc2ccnc(C(F)(F)F)c2)cc1 [Compound S20, 6-(4-Ethynylphenoxy)-N-(2-(trifluoromethyl)pyridin-4-yl)hexanamide] | – | 15.5 |
| O=C(CCCCCOc1cccc2ccccc12)Nc1ccnc(C(F)(F)F)c1 [Compound S39, 6-(Naphthalen-1-yloxy)-N-(2-(trifluoromethyl)pyridin-4-yl)hexanamide] | 15 | – |
| CSc1ccc(OCCCCCC(=O)Nc2ccnc(C(F)(F)F)c2)cc1 [Compound S17, 6-(4-(Methylthio)phenoxy)-N-(2-(trifluoromethyl)pyridin-4-yl)hexanamide] | 14 | – |
| O=C(CCCCCOc1ccc2ccccc2c1)Nc1ccnc(C(F)(F)F)c1 [Compound S38, 6-(Naphthalen-2-yloxy)-N-(2-(trifluoromethyl)pyridin-4-yl)hexanamide] | 2.6 | – |
| O=C(CCCCCOc1ccc(C(=O)OCc2ccccc2)cc1)Nc1ccnc(C(F)(F)F)c1 [Compound S30, Benzyl 4-((6-oxo-6((2-(trifluoromethyl)pyridin-4-yl)amino)hexyl)oxy)benzoate] | 2.6 | – |
| CC(C)(C)c1ccc(OCCCCCC(=O)Nc2ccnc(C(F)(F)F)c2)cc1 [Compound S27, 6-(4-(tert-Butyl)phenoxy)-N-(2-(trifluoromethyl)pyridin-4-yl)hexanamide] | 2.6 | – |
| O=C(CCCCCN1CCN(c2ccccn2)CC1)Nc1ccnc(C(F)(F)F)c1 [Compound S41, 6-(4-(Pyridin-2-yl)piperazin-1-yl)-N-(2-(trifluoromethyl)pyridin-4-yl)hexanamide] | 95 | – |
| CC(=O)c1ccccc1OCCCCCC(=O)Nc1ccnc(C(F)(F)F)c1 [Compound S32, 6-(2-Acetylphenoxy)-N-(2-(trifluoromethyl)pyridin-4-yl)hexanamide] | 57 | – |
| O=C(CCCCCN1CCN(c2cccnc2)CC1)Nc1ccnc(C(F)(F)F)c1 [Compound S42, 6-(4-(Pyridin-3-yl)piperazin-1-yl)-N-(2-(trifluoromethyl)pyridin-4-yl)hexanamide] | 70 | – |
| COC(=O)c1ccc(OCCCCCC(=O)Nc2ccnc(C(F)(F)F)c2)cc1 [Compound S34, Methyl 4-((6-oxo-6-((2-(trifluoromethyl)pyridin-4-yl)amino)hexyl)oxy)benzoate] | 88 | – |
| C#Cc1ccccc1OCCCCCC(=O)Nc1ccnc(C(F)(F)F)c1 [Compound S22, 6-(2-Ethynylphenoxy)-N-(2-(trifluoromethyl)pyridin-4-yl)hexanamide] | 15.5 | – |

From US20230303493A1, “ANTIBACTERIAL ADJUVANTS AND APPLICATIONS THEREOF” (THE TRUSTEES OF PRINCETON UNIVERSITY, priority 2020, published 2023)
